Measured values taken from patent US5451571A (The Cleveland Clinic Foundation, priority 1994, dated 1995).
“Also recorded” adds a separate entry of the source. One block for each compound: values may come before it.

Experiments:
carboxypeptidase A = target: T1, carboxypeptidase A (Homo sapiens, UniProt P15085); conditions: cited from earlier work
T1 sequence (P15085 111-419): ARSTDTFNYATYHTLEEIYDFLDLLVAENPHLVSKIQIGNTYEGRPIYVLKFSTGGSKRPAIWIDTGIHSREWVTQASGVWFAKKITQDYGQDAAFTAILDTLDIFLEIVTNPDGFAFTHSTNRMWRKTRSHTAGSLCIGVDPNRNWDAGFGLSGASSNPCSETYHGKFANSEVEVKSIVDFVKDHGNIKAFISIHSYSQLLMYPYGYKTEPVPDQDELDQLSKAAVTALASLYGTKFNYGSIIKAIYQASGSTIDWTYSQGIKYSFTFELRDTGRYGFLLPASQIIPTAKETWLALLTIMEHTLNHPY

ACE = ACE (Homo sapiens, UniProt P12821); conditions: cited from earlier work
Sequence of ACE (P12821 30-1306, species assumed): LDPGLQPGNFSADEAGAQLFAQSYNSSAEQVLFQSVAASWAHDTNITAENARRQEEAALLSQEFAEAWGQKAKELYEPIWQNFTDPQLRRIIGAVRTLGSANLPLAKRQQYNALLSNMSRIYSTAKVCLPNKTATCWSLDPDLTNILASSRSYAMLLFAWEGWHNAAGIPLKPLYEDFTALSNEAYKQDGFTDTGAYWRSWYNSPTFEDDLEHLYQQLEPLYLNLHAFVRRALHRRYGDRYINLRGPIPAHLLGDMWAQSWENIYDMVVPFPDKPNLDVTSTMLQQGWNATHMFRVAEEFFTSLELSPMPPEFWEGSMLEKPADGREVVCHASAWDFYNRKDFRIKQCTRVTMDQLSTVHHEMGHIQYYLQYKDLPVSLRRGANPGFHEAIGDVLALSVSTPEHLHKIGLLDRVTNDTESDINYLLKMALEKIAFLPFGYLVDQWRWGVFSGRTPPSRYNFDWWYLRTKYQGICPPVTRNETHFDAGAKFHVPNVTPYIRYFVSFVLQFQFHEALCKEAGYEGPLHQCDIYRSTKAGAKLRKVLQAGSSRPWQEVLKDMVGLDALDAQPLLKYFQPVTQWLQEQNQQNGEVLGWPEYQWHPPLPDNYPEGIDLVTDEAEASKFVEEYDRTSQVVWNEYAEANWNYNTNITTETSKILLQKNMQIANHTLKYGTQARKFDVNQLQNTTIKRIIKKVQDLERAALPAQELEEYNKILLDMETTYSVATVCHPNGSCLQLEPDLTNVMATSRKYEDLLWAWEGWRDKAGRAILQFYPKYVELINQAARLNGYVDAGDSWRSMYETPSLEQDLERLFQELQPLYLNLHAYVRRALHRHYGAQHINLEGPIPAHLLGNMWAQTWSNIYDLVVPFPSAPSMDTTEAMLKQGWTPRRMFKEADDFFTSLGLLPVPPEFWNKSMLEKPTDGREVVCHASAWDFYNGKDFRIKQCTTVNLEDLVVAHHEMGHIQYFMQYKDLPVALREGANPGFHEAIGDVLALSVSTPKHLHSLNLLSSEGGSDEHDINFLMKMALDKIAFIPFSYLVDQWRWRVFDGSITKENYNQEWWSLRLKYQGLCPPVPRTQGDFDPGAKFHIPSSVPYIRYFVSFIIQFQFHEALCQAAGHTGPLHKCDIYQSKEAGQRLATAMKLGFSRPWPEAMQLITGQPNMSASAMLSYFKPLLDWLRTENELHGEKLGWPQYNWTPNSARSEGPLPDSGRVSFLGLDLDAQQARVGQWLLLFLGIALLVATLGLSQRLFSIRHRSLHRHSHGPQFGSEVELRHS

[1] = test system: spontaneously hypertensive rats (SHR); experiment: Blood angiotensin peptides (RIA) after i.v. Ang I in conscious SHR with enzyme inhibitors; format: in vivo, rat
Method: (§1) All experiments were carried out in strict adherence to the principles sponsored by the American Physiological Society. Male 16-week-old SHR(319±4 gm) and WKY(315±4 gm) controls (Charles River, Wilmington, Mass.) were housed in rooms maintained on a 12 hr light-dark cycle. Animals ate a solid diet of rat chow (Purina, Bedford, Ohio) and had free access to water. Cannulas (PE-50 and PE-10, Clay Adams Becton Dickinson, Parsippany, N.J.) were implanted into a femoral artery and vein using aseptic conditions in rats anesthetized with 1% halothane 24 hours beforehand. The free ends of the cannulas were tunneled under the skin and externalized at the back of the neck.
(§2) Conscious rats were divided into five groups. Group I (n=4 SHR and 4 WKY) received an i.v. injection of 0.9% NaCl. Group II (n=4 SHR and 4 WKY) was given an i.v. injection of enalaprilat (MK-422,2 mg/kg). Group III (n=4 SHR and 4 WKY) was injected with (N-{N-[1-(S)-carboxy-3-phenylpropyl]-(S)-phenylalanyl}-(S)-isoserine) at a dose of 15 mg/kg. […] Group IV (n=4 SHR and 4 WKY) received both MK-422 (2 mg/kg) and SCH 39,370 (15 mg/kg). Group V (n=3 SHR and 3 WKY) were given MK- 422 (2 mg/kg) and Z-prolyl-prolinal (5 mg/kg), a specific inhibitor of prolyl endopeptidase (Friedman TC, Orlowski M, Wilk S: Prolyl Endopeptidase: Inhibition in vivo by N-benzyloxycarbonyl-prolyl-prolinal. J. Neurochem. 42:237-241,1984). Either saline (vehicle) or the enzyme inhibitors were administered 20 minutes before an i.v. injection of 0.2 ml of Ang I (2 nmol) in heparinized saline. Serial samples of arterial blood (0.2 ml) were rapidly collected into ice-chilled tubes containing 5 ml of 80% ethanol/0.1N HCL every 15-30 sec before and after injection of Ang I. The amount of blood removed in each sample was replaced with an equal volume of saline. The dead space (0.08 ml) of the femoral artery catheter was cleared of any remaining saline or blood before obtaining the samples.
(§3) Peptide Extraction and Analyses: Samples were centrifuged at 5,000 g for 20 minutes; the supernatant was stored for 12 hours at -20° C. After a second centrifugation step (10,000 g, 20 min) the supernatant was diluted 1:1 (V:V) with 1% heptaflurobutyric acid (HFBA), stored for 4-6 […] hours at 4° C., and centrifuged again at 15,000 g. This supernatant was further diluted 1:4 with 0.2% HFBA and concentrated on a Sep-Pak Vac Cartridge (Millipore Co., Milford, Mass.) activated beforehand with 3 ml of 60% acetonitrile/0.2% HFBA, 3 ml of 0.1% bovine serum albumin in 0.2% HFBA, and 5 ml of HFBA. After application of the supernatant, the column was washed with 10 ml of 0.2% HFBA. Angiotensin peptides were eluted with 8 ml of 60% acetonitrile/0.2% HFBA. Fractions were evaporated to dryness in a vacuum centrifuge (Savant Instrument Inc., Hicksville, N.Y.) for measurements by radioimmunoassay (RIA). Different aliquots of the samples were assayed to ensure linearity. Peptide recovery for Ang I added to the acid ethanol solution prior to blood sample averaged 85±4%, n=6, SFM): peptide values were not corrected for recovery. Moreover, no in vitro conversion of Ang I into either Ang-(1-7) or Ang II was observed.
(§4) The RIAs employed by the inventors to determine concentrations of Ang I, Ang II, and Ang-(1-7) are described in detail elsewhere. See, Chappell MC, Brosnihan KB, Diz DI, Ferrario CM: Identification of Angiotensin-(1-7) in Rat Brain: Evidence for Differential Processing of Agiotensin Peptides. J. Biol. Chem. […]:16518-16523,1989; and, Kohara K, Brosnihan KB, Chappell MC, Khosla MC, Ferrario CM: Angiotensin-(1-7): A Member of Circulating Angiotensin Peptides. Hypertension 17:131-138, 1991. […] The sensitivity of the Ang I assay (defined as twice the minimum detection level) averaged 5 fmol/tube. The Ang II antibody was produced by the inventors. […] The sensitivity of the Ang II RIA is 0.5 fmol/tube. The antibody of Ang-(1-7) (Core No. 1) was obtained in the inventors laboratory. […]

Wistar Kyoto (WKY) rats = experiment: Blood angiotensin peptides (RIA) after i.v. Ang I in conscious WKY with enzyme inhibitors; format: in vivo, rat
Method: as §1, §2, §3, §4

SHR = experiment: Blood pressure effect of SCH 39,370 in SHR; format: in vivo, rat
[2] = test system: DOCA-salt hypertensive rats; conditions: cited from earlier work
NEP 24.11 = conditions: cited from earlier work
NG108 cells = experiment: Ang-(1-7) production from Ang I in NG108 cells; format: cell-based
prolylendopeptidase = experiment: 125I-Ang-(1-7) production from 125I-Ang I in dog hypothalamus homogenates (HPLC); format: biochemical
Method: As a result of these discoveries, the enzyme(s) involved in the production of Ang-(1-7) in homogenates (20 mM TRIS HCl buffer, pH 7.5) of dog hypothalamus were evaluated.

[3] = target: T2, angiotensin converting enzyme (ACE) (Canis lupus familiaris, UniProt A0A8I3S3I6); experiment: ACE activity assay (Hip-His-Leu, fluorometric) in dog brain tissue homogenates; format: biochemical; conditions: 10 μM MK 422; read-out: inhibition of product released (ACE activity)
T2 construct: The ACE activity was determined by incubating 10 μl of the supernatants; from tissue; host or cells: dog brainstem, spinal cord, choroid plexus and neurohypophysis punches
T2 sequence (A0A8I3S3I6 31-1241): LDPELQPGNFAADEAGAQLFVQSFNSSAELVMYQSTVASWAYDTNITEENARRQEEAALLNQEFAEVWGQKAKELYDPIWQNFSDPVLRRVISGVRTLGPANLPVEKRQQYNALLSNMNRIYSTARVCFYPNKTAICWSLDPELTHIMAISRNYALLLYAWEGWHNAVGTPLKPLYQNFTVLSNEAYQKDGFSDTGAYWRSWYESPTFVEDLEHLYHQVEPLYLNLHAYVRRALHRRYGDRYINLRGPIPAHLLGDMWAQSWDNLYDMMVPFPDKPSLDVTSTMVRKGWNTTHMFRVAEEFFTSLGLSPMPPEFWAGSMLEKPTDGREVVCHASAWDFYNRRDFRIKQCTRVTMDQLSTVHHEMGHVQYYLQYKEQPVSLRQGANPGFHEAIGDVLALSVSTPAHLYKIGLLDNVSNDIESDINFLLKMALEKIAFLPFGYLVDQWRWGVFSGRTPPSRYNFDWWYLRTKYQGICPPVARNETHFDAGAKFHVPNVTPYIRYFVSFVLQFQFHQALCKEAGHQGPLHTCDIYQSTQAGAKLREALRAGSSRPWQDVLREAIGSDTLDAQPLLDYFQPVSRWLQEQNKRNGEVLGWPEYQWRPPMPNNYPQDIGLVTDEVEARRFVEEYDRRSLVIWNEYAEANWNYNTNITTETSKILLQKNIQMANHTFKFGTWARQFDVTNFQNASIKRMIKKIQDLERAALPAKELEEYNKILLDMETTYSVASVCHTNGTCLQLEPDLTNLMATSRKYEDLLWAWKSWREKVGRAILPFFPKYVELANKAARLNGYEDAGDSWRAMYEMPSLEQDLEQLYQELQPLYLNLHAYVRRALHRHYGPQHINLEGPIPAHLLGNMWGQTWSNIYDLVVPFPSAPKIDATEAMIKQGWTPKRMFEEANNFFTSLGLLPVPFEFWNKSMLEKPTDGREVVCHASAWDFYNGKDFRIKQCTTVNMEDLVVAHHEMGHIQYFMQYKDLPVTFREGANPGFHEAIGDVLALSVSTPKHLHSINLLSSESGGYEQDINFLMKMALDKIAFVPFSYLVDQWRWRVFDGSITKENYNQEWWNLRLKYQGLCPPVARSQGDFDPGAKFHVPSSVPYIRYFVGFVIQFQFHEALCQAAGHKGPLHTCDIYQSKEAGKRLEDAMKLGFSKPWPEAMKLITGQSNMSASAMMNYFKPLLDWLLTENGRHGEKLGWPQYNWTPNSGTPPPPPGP
Method: Larger tissue samples were homogenized to a final concentration of 100 mg tissue ml/buffer. The homogenates were centrifuged at 18,000 g for two minutes at 4° C. The ACE activity was determined by incubating 10 μl of the supernatants with 500 μl of an assay solution containing 5 mM Hip-His-Leu (Sigma Chemical, St. Louis, Mo., USA) in 0.4 M sodium borate buffer, pH 8.3, and 0.9 M NaCl for 15 minutes at 37° C.) (Santos R. A. S., Krieger, E. M., Greene, L. J., An Improved Fluorometric Assay of Rat Serum and Plasma Converting Enzyme. […] The product His-Leu was measured fluorometrically (365 nm excitation, 495 emission; Aminco spectrofluorometer, American Instruments, Silver Springs, Md., USA). In punches obtained from the brainstem, neurohypophysis, and choroid plexus, the rate of reaction was linear over a 20-minute period and with the volume of the sample assayed (5-15 ul). Under these conditions, hydrolysis of the product His-Leu (Sigma) was less than 6% as evaluated indirectly fluorometry (Santos, et al. supra). […] Tissue ACE specific activity was expressed as units corresponding to 1 nmol/min/mg protein.

[4] = target: T2, angiotensin converting enzyme (ACE); experiment: Tissue ACE activity in dog brain six hours after i.v. MK 422; format: in vivo; conditions: six hours after MK 422 10 mg/kg i.v.
Method: Experiments were performed on fourteen mongrel dogs weighing 16±2 kg and anesthetized with sodium pentobarbital (30 mg/kg i.v.). […] Ten of the fourteen dogs were given a lethal dose of sodium pentobarbital, and the brain and thoracic portion of the spinal cord (C6-T3) were excised immediately. The brain was removed from four other dogs six hours after a single injection of MK 422 (enalaprilat) at a dose of 10 mg/kg i.v.
Coronal sections (2000 μm thick) from either the brainstem or the spinal cord were laid on a frozen Petri dish placed under the operating microscope. […] Punches from coronal sections of the intermediolateral column of the spinal cord were obtained between C6 and T3. Blocks of tissue were also taken from the area postrema at the obex, the neurohypophysis, and the choroid plexus in the fourth ventricle. Remaining coronal tissue sections were analyzed separately. All tissue samples were kept on dry ice and stored at -70° C. until assayed.
The ACE activity and angiotensin metabolism were measured in tissue samples obtained from five control and four MK 422-treated dogs.
Larger tissue samples were homogenized to a final concentration of 100 mg tissue ml/buffer. The homogenates were centrifuged at 18,000 g for two minutes at 4° C. The ACE activity was determined by incubating 10 μl of the supernatants with 500 μl of an assay solution containing 5 mM Hip-His-Leu (Sigma Chemical, St. Louis, Mo., USA) in 0.4 M sodium borate buffer, pH 8.3, and 0.9 M NaCl for 15 minutes at 37° C.) (Santos R. A. S., Krieger, E. M., Greene, L. J., An Improved Fluorometric Assay of Rat Serum and Plasma Converting Enzyme. […] The product His-Leu was measured fluorometrically (365 nm excitation, 495 emission; Aminco spectrofluorometer, American Instruments, Silver Springs, Md., USA). […] Under these conditions, hydrolysis of the product His-Leu (Sigma) was less than 6% as evaluated indirectly fluorometry (Santos, et al. supra). […] Tissue ACE specific activity was expressed as units corresponding to 1 nmol/min/mg protein.

change of baseline and peak plasma levels of Ang II ([1]; SHR, SCH 39,370): double | inhibition of Ang-(1-7) production at larger doses ([1]; preliminary experiments, doses above 15 mg/kg, strain not stated): no further inhibition | change of baseline and peak plasma levels of Ang II (Wistar Kyoto (WKY) rats; SCH 39,370): double | formation of Ang-(1-7) versus vehicle (Wistar Kyoto (WKY) rats; SCH 39,370 15 mg/kg alone, difference not significant (p>0.05)): inhibited the formation of Ang-(1-7)
Compound: O=C(O)[C@H](CCc1ccccc1)N[C@@H](Cc1ccccc1)C(=O)NC[C@H](O)C(=O)O [SCH 39,370, N-{N-[1-(S)-carboxy-3-phenylpropyl]-(S)-phenylalanyl}-(S)-isoserine]
inhibition of carboxypeptidase A (carboxypeptidase A): does not inhibit | inhibition of ACE (ACE): does not inhibit | reduction of peak levels of Ang-(1-7) below vehicle ([1]; SHR): 74% | peak level of Ang I in blood ([1]; SHR, 15 seconds after Ang I 2 nmol i.v., saline (label Ang I) or SCH 39,370 15 mg/kg 20 minutes before): 6.2 ± 0.4 pmol/mL | peak level of Ang II in blood ([1]; SHR, 15 seconds after Ang I 2 nmol i.v., saline (label Ang I) or SCH 39,370 15 mg/kg before): 27.2 ± 3.8 pmol/mL | formation / levels of Ang-(1-7) versus vehicle ([1]; SHR, SCH 39,370 15 mg/kg alone, difference statistically significant): decreased; also recorded: inhibited the formation of Ang-(1-7) | baseline level of Ang II ([1]; SHR, after SCH 39,370 15 mg/kg, before 0.02±0.02): 0.18 ± 0.04 pmol/mL | reduction of peak levels of Ang-(1-7) below vehicle (Wistar Kyoto (WKY) rats): 51% | peak level of Ang I in blood (Wistar Kyoto (WKY) rats; 15 seconds after Ang I 2 nmol i.v., saline (label Ang I) or SCH 39,370 15 mg/kg 20 minutes before): 4.3 ± 0.4 pmol/mL | peak level of Ang II in blood (Wistar Kyoto (WKY) rats; 15 seconds after Ang I 2 nmol i.v., saline (label Ang I) or SCH 39,370 15 mg/kg before): 21.8 ± 5.4 pmol/mL | baseline level of Ang II (Wistar Kyoto (WKY) rats; after SCH 39,370 15 mg/kg, before 0.04±0.02): 0.12 ± 0.04 pmol/mL | effect on blood pressure (SHR): did not reduce blood pressure | effect on blood pressure [2]: antihypertensive effects | inhibition of NEP 24.11 (NEP 24.11): specific and potent inhibitor

Compound: CC(C)C[C@H](NP(=O)(O)O[C@@H]1O[C@@H](C)[C@H](O)[C@@H](O)[C@H]1O)C(=O)N[C@@H](Cc1c[nH]c2ccccc12)C(=O)O [Phosphoramidon]
production of Ang-(1-7) in the presence of the inhibitor (NG108 cells): not inhibited | inhibition of Ang-(1-7) formation (prolylendopeptidase): 12% | production of Ang-(1-7) in the presence of the inhibitor (prolylendopeptidase; canine hypothalamic homogenates): not inhibited

Compound: C[C@H](N[C@@H](CCc1ccccc1)C(=O)O)C(=O)N1CCC[C@H]1C(=O)O [MK 422, enalaprilat]
increase of peak Ang-(1-7) over values found in control rats ([1]; SHR, MK-422 2 mg/kg): three-fold | Ang II formation / production ([1]; SHR, after Ang I 2 nmol i.v.): eliminated | increase of peak Ang-(1-7) over values found in control rats (Wistar Kyoto (WKY) rats; MK-422 2 mg/kg): two-fold | Ang II formation / production (Wistar Kyoto (WKY) rats; after Ang I 2 nmol i.v.): eliminated | inhibition at 10 µM [3]: 98% | ACE activity in homogenates from the choroid plexus [4]: 14.9±0.6 U | ACE activity in other regions of the brainstem [4]: did not change | ACE activity in the A2 region (between -2 and +4 mm of the obex) ([4]; untreated controls 22.5±1.6 U): 16.7±1.7 U
